Like-named read-outs stand apart in the source and are kept apart here. Marks after values point to notes of the source that are not given here.
Legend:
SARS-CoV-2 [1] = assay type: cell-based
[2] = test system: Vero cells (Monkey Kidney Epithelial Cells)
SARS-CoV-2 [3] = assay: Virucide activity against SARS-CoV-2, plaque assay; assay type: cell-based; conditions: scheme B+C; for SARS-CoV-2 infectivity reduced by: plaque assay
[4] = test system: canine herpes virus, CHV-1; assay: Antiviral checkerboard assay, Cf2Th cells infected with canine herpes virus CHV-1; assay type: cell-based
Procedure: This antiviral activity was evaluated using Cf2Th cells (canine thymocytes) infected with canine herpes virus, CHV-1.
Briefly, the Cf2Th cells were plated at a concentration of 5×10^5 cells/mL in 96-well multiwells (100 μL/well) and incubated at 37° C. in an atmosphere with 5% CO2.
Upon reaching about 90% confluence (48 h incubation), the medium was aspirated from each well, and replaced with 100 μL fresh medium containing a final virus concentration equal to 1×10^3 UFP/mL, and different concentrations of Lactoferricin and Grape Seed extract.
In particular, the different combinations between the two compounds had been previously prepared by crossing serial dilutions of the same, according to the protocol defined “broth microdilution checkerboard method”.
The cells were left in co-incubation with the virus and the compounds under examination for 48 h (37° C. -5% CO2).
At the end of the incubation, the wells characterized by a cell lysis given by the viral infection were discriminated from those in which the virus was inhibited by the compounds and therefore with viable cells. This evaluation was carried out both by direct observation under the microscope and by staining with methylene blue. […]
To determine the actual presence of synergy between the two compounds, the ratio below was calculated, defined as the FIC Index (FIC I). […]

Molecule: lactoferrin/lactoferricin [PREP 1]
- Mean ΔCt (SARS-CoV-2 [1]; 1.02 mg/ml, scheme A (preincubation of virus with compound)): 0.16
- Mean ΔCt (SARS-CoV-2 [1]; 1.02 mg/ml, scheme B+C (during and after inoculum)): −0.48
- Mean ΔCt (SARS-CoV-2 [1]; 1.02 mg/ml, scheme B+C+D (during, after inoculum and repeated)): −0.59
- Mean ΔCt (SARS-CoV-2 [1]; 2.03 mg/ml, scheme A (preincubation of virus with compound)): 0.36
- Mean ΔCt (SARS-CoV-2 [1]; 2.03 mg/ml, scheme B+C (during and after inoculum)): −0.50
- Mean ΔCt (SARS-CoV-2 [1]; 2.03 mg/ml, scheme B+C+D (during, after inoculum and repeated)): −1.11
- Mean ΔCt (SARS-CoV-2 [1]; 4.06 mg/ml, scheme A (preincubation of virus with compound)): 0.52
- Mean ΔCt (SARS-CoV-2 [1]; 4.06 mg/ml, scheme B+C (during and after inoculum)): −2.90
- Mean ΔCt (SARS-CoV-2 [1]; 4.06 mg/ml, scheme B+C+D (during, after inoculum and repeated)): −3.64
- mean ΔCt over schemes C, B+C and B+C+D (SARS-CoV-2 [1]; high dose, added after the inoculum, one or twice): −3.3
- CC10 ([2]; Vero cells, 72 h, MTT): >4.06* mg/ml
- CC50 ([2]; Vero cells, 72 h, MTT): >4.06* mg/ml
- maximum nontoxic concentration (assumed) ([2]; Vero cells, based on CC50/CC10 data): 4.06 mg/mL

Molecule: polylysine [PREP 3]
- antiviral effect (SARS-CoV-2 [1]): No antiviral effect
- virus inhibition (antiviral and virucide activities) (SARS-CoV-2 [1]): more than 90%
- ΔCt, dose-dependent antiviral effect (SARS-CoV-2 [1]): −1.80 to −5.22
- antiviral effect (SARS-CoV-2 [1]; addition of a third dose (scheme B+C+D)): slight effect
- decrease in the viral replication (SARS-CoV-2 [1]; scheme B+C): more than 1 log
- maximum inhibition of the virus replication (SARS-CoV-2 [1]; scheme B+C): 93%
- antiviral effect (SARS-CoV-2 [1]; schemes A, B and C): no effect
- SARS-CoV-2 infectivity reduced by (SARS-CoV-2 [3]; 0.05 mg/ml): 20%
- percentage of virus replication compared to untreated infected cells (SARS-CoV-2 [3]; 0.05 mg/ml): 80%
- SARS-CoV-2 infectivity reduced by (SARS-CoV-2 [3]; 0.1 mg/ml): 30.2%
- percentage of virus replication compared to untreated infected cells (SARS-CoV-2 [3]; 0.10 mg/ml): 69.8%
- SARS-CoV-2 infectivity reduced by (SARS-CoV-2 [3]; 0.20 mg/ml): 48.8%
- percentage of virus replication compared to untreated infected cells (SARS-CoV-2 [3]; 0.20 mg/ml): 51.2%
- SARS-CoV-2 infectivity reduced by (SARS-CoV-2 [3]; 0.40 mg/ml): 96.3%
- percentage of virus replication compared to untreated infected cells (SARS-CoV-2 [3]; 0.40 mg/ml): 3.7%
- CC10 [2]: >0.40 mg/mL

Molecule: Lactoferricin
- Minimum Antiviral Concentration Compound alone ([4]; CHV-1, 48 h co-incubation): 3.125%
- Minimum Antiviral Concentration Compound in association ([4]; in association with Grape Seed Extract, CHV-1, 48 h): 0.781%

Molecule: CCN(CC)CCCC(C)Nc1ccnc2cc(Cl)ccc12 (centres unmarked) [Chloroquine, chloroquine, reference compound]
- CC10 ([2]; Vero cells, 72 h, MTT): 20.93 ± 4.39 µM
